Literature values, collected in patent publication US7550154B2, “Methods of treatment with drug loaded polymeric materials” (Yale University, priority 2004, dated 2009).

solubility in aqueous environments: limited solubility
Structure (SMILES): COc1cccc2c1C(=O)c1c(O)c3c(c(O)c1C2=O)C[C@@](O)(C(=O)CO)C[C@@H]3O[C@H]1C[C@H](N)[C@H](O)[C@H](C)O1 [Dox, doxorubicin]
